The subject of experiment [1] is Kv1.1/1.3 S1-S2 chimeric channel. Briefly: Whole-cell patch clamp, chimeric channel. It counts as cell-based, human. Conditions: +30 mV, mean ± SD. An excerpt:
(§1) To investigate the structural determinants underlying the differential regulatory effects of MrVIII on Kv1 channels, we employed a chimeric channel strategy. Using Kv1.3 as the template, the S1-S2, S3-S4, and S5-S6 transmembrane helices and their respective linkers from Kv1.1 were inserted to generate chimeras, generating the Kv1.3/1.1 S1-S2, Kv1.3/1.1 S3-S4, and Kv1.3/1.1 S5-S6 chimeric channels. […] These findings indicate that the S3-S4 is the key determinant for the differential inhibition of Kv1.1 and Kv1.3 by MrVIII. To further validate this conclusion, we constructed a reverse chimeric channel using Kv1.1 as the template, inserting the corresponding regions from Kv1.3 into Kv1.1. […] This finding more directly illustrates the exchange of the channel's voltage-dependence phenotype in toxin inhibition by swapping this S3-S4 between Kv1.1 and Kv1.3. […] In addition to confirming the differential role of S3-S4 between Kv1.1 and Kv1.3, we also substituted the S3-S4 of Kv1.4 and Kv1.7 into Kv1.3 to analyze MrVIII's inhibition profile. […] The IC50 for Kv1.3/1.7 S3-S4 could not be fitted, and inhi%(495 ms) was only 23.1 ± 10.0% (Fig. S2, E and F).
(§2) The cDNA of hKv1.1, hKv1.2, hKv1.3, rKv1.4, hKv1.5, mKv1.6, and hKv1.7 were subcloned into mammalian expression vectors pcDNA3.1 or pCMV-blank vectors, as well as other plasmids described previously ([35]). Channel mutants were generated by site-directed mutations. Briefly, the parental channel plasmid was amplified using a pair of oppositely directed primers harboring the designed mutation site, with KOD Fx (TOYOBO Co, Ltd). The resulting PCR mix was treated with FastDigest DpnI (Thermo Fisher Scientific) to remove the methylated template. Ten microliters of the digested product was then used to transform 100 μl E. coli DH5α competent cells. Transformants were randomly picked and sequenced to confirm the presence of the intended mutation.
(§3) CHO-K1 cells were selected for expressing Kv channels due to their lack of endogenous Kv channels, while HEK293 or ND7/23 cells were used for Nav and Cav channel expression. CHO-K1 cells were cultured in a Dulbecco's modified Eagle's medium/Ham's F-12 nutrient mixture (DMEM-F12) medium, and HEK293T and ND7/23 cells in DMEM medium, all supplemented with 10% fetal bovine serum and 1% penicillin-streptomycin (all from Gibco, Thermo Fisher Scientific, Inc) under standard conditions (37 °C, 5% CO2, and saturated humidity). These cell lines were purchased from Stem Cell Bank, Chinese Academy of Sciences. Channel plasmids were cotransfected with pEGFP-N1 (encoding GFP) into the respective cells using lipofectamine 2000, following the manufacturer's instructions (Invitrogen, Thermo Fisher Scientific, Inc.). Nav1.9-GFP plasmid was transfected into ND7/23 using the X-tremeGENE HP DNA Transfection Reagent (Roche). After 4 to 6 h transfection, cells were seeded onto poly-lysine–coated coverslips, and 24 to 36 h later, transfected cells were ready for patch-clamp analysis.
(§4) Patch clamp experiments were conducted using an electrophysiology platform comprising a MultiClamp 700B amplifier and an Axon Digidata 1550 AD/DA convertor (Axon Instruments). Data acquisition was performed with pClamp 10.5 software (Axon Instruments). All experiments were performed at room temperature.
(§5) For Kv current recordings, the bath solution contained (in mM) the following: 140 NaCl, 5 KCl, 1 MgCl2, 2 CaCl2, 10 glucose, and 10 Hepes (pH 7.3, adjusted with NaOH), and the pipette solution contained (in mM) the following: 140 KCl, 2.5 MgCl2, 11 EGTA, and 10 Hepes (pH 7.3, adjusted with KOH). Series resistance was maintained below 10 MΩ and compensated to 80%. Concentration–response curves were fitted by the Hill equation to determine the toxin's potency. Whole cell conductance (G) at each depolarizing voltage (V) was determined using the equation: G = I/(V−Vrev), where I is the current amplitude, and Vrev is the reversal potential. […]
For orientation: The patch-clamp technique gives a direct electrical read-out from membranes.

Experiment [2] concerns Kv1.3/1.7 S3-S4 chimeric channel. Description: Whole-cell patch clamp, chimeric channel. It counts as cell-based, human. Conditions: current at 495 ms, +30 mV, IC50 could not be fitted, mean ± SD, n = 5-6.
From the text: as §1, §2, §3, §4, §5

In experiment [3] the test system is Kv1.3/1.1 S3-S4 chimeric channel. Description: Whole-cell patch clamp, chimeric channel. Format: cell-based, human. The note with it: +30 mV, mean ± SD.
From the text: as §1, §2, §3, §4, §5

The subject of experiment [4] is Kv1.3/1.1 S1-S2 chimeric channel. Description: Whole-cell patch clamp, chimeric channel. Format: cell-based, human. Conditions: +30 mV, 500 ms, holding −80 mV, mean ± SD, n = 4-5, read-out: IC50, Kv1.3/1.1 S1-S2 current.
From the text: as §1, §2, §3, §4, §5

A further experiment deals with T1, hKv1.2 (Homo sapiens, UniProt P16389).
T1 construct: expressed in transfected cells; host or cells: CHO-K1
Briefly: Whole-cell patch clamp, Kv1.2 ionic current in CHO-K1 cells. The note with it: +30 mV, 500 ms, holding −80 mV, mean ± SD, n = 4–7, read-out: IC50, inhibition of Kv1.2 current (full inhibition). Format: cell-based. The method, then: as §2, with “Transformants were randomly picked and sequenced to confirm the presence of the intended mutation.” left out
CHO-K1 cells were selected for expressing Kv channels due to their lack of endogenous Kv channels, while HEK293 or ND7/23 cells were used for Nav and Cav channel expression. […] After 4 to 6 h transfection, cells were seeded onto poly-lysine–coated coverslips, and 24 to 36 h later, transfected cells were ready for patch-clamp analysis. […]
For Kv current recordings, the bath solution contained (in mM) the following: 140 NaCl, 5 KCl, 1 MgCl2, 2 CaCl2, 10 glucose, and 10 Hepes (pH 7.3, adjusted with NaOH), and the pipette solution contained (in mM) the following: 140 KCl, 2.5 MgCl2, 11 EGTA, and 10 Hepes (pH 7.3, adjusted with KOH). […] The steady-state fast inactivation of Kv1.3 was measured using a two-pulses protocol. […]

Bridge positions count the residues as written; N and C are the ends. Peptide text beside a SMILES is read from it.

T1 sequence (P16389 whole entry): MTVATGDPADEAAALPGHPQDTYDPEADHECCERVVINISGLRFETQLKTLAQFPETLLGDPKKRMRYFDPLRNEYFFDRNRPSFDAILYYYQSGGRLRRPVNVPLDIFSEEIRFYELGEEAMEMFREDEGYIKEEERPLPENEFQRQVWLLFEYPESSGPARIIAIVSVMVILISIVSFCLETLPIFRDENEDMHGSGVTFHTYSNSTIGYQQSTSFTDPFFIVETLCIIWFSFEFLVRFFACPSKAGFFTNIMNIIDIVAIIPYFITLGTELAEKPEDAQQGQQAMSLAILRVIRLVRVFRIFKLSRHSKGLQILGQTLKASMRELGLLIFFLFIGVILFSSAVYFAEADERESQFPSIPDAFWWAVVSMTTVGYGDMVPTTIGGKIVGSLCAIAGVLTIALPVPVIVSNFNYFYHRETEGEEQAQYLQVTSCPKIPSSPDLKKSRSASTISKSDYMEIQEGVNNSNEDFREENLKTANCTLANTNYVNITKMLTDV

For the compound `CC[C@H](C)[C@@H]1NC(=O)[C@H](Cc2ccc(O)cc2)NC(=O)[C@H](CCC(N)=O)NC(=O)[C@@H]2CCCN2C(=O)[C@@H]2CSSC[C@H](NC(=O)[C@H](C)NC(=O)[C@H](CO)NC(=O)[C@H](CCC(=O)O)NC(=O)[C@H](CCC(=O)O)NC(=O)[C@@H](N)[C@@H](C)O)C(=O)NCC(=O)NCC(=O)N[C@@H](Cc3ccccc3)C(=O)N[C@@H](CC(N)=O)C(=O)N[C@@H](C)C(=O)N[C@@H](CCCNC(=N)N)C(=O)N[C@H]3CSSC[C@H](NC1=O)C(=O)N[C@@H](CCCCN)C(=O)NCC(=O)N[C@@H](Cc1c[nH]c4ccccc14)C(=O)N[C@@H](CCCNC(=N)N)C(=O)N[C@@H]([C@@H](C)O)C(=O)N[C@@H](CCCCN)C(=O)N[C@@H](CCCNC(=N)N)C(=O)N[C@H](C(=O)N[C@@H](CC(C)C)C(=O)N[C@@H](CC(N)=O)C(=O)N1CCC[C@H]1C(=O)O)CSSC[C@H](NC(=O)[C@H](CCCCN)NC(=O)[C@H](Cc1c[nH]cn1)NC(=O)[C@H](CC(C)C)NC(=O)[C@@H]1CCCN1C3=O)C(=O)N2` [MrVIII] (H-TEESACGGFNARCPLHKCCPQYICKGWRTKRCLNP-OH; disulfide 6-19, 13-24, 18-32; N-terminus and C-terminus assumed), the IC50 is 103 ± 59.1 nM in experiment [1] (current at 50 ms, n = 4-5); 230 ± 123 nM in experiment [3] (current at 50 ms, n = 4-5); 1.9 ± 1.1 nM in experiment [4]; 0.5 ± 0.1 nM on hKv1.2. The “inhi%(495 ms), Kv1.1/1.3 S1-S2 current” value in experiment [1] (current at 495 ms) is listed as 60.5 ± 18.5%. Further, in experiment [2], the “inhi%(495 ms), Kv1.3/1.7 S3-S4 current” value is given as 23.1 ± 10.0%. The “inhi%(495 ms), Kv1.3/1.1 S3-S4 current” value in experiment [3] (current at 495 ms, negative = current enhanced) was −10.0 ± 13.9%.

Values taken from article PMC11984586, “A novel spider toxin as a selective antagonist of the Kv1 subfamily of voltage-gated potassium channels through gating modulation” (The Journal of Biological Chemistry, 2025).
